Reference: patent US4252812A, “2-Substituted-trans-5-ar yl-2,3,4,4a,5,9b-hexahydro-1H-pyrido[4,3-b]indoles” (Pfizer Inc., priority 1980, dated 1981)
Counter-ions that a name gives are not always drawn. Like-named read-outs stand apart in the source and are kept apart here.

Experiments:
[1] = tested on: amphetamine-induced symptoms (cage movement) in rats; test: Antagonism of amphetamine stereotypy in rats; type: in vivo, rat; details: for ED50: Rattus norvegicus; for ED50 (micrograms/kilograms) 1 Hr. / ED50 (mg./kg.) 1 Hr.: 60 min; for ED50 (micrograms/kilograms) 5 Hrs. / ED50 (mg./kg.) 5 Hrs.: 300 min; for ED50 (micrograms/kilograms) 24 Hrs. / ED50 (mg./kg.) 24 Hrs.: 1440 min; for ED50 (mg./kg.) 1 Hr. / ED50 (mg./kg.) 5 Hrs. / ED50 (mg./kg.) 24 Hrs. / ED50 (mg./kg.) 72 Hrs. / ED50 (mg./kg.) 48 Hrs.: Part D, enantiomers from Example 21; for ED50 (mg./kg.) 72 Hrs.: 4320 min; for ED50 (mg./kg.) 48 Hrs.: 2880 min
Method: Antagonism of Amphetamine Stereotypy in Rats Test Procedures and Results
The effects of the compounds of the present invention on prominent amphetamine-induced symptoms were studied in rats by a rating scale modeled after the one reported by Quinton and Halliwell, and Weissman. Groups of five rats were placed in a covered plastic cage measuring approximately 26 cm.×42 cm.×16 cm. […] They were then treated 1, 5 and 24 hrs. later with d-amphetamine sulfate, 5 mg./kg. intraperitoneally (i.p.). […] On the basis of dose-response data after amphetamine it was possible to determine the effective dose of the compound necessary to antagonize or block the characteristic amphetamine behavior of cage movement for fifty percent of the rats tested (ED50). The time of rating chosen coincides with the peak action of amphetamine which is 60-80 min. after treatment with this agent.
Employing the above-described procedure, the following 4a,9b-trans compounds were tested for their ability to block the behavior effects of amphetamine, the results being reported as the ED50 in mg./kg. at the indicated times: [drawing 31]
A. The following results were obtained on the mixture of diastereomers for those compounds wherein R contains a secondary alcohol group and on the single diastereomer of the other 4a, 9b-trans hexahydro-pyrido-indoles.
B. The results of tests in which compounds of the invention reported in Part A, above are compared with the corresponding δ-substituted-5-aryl-1,2,3,4-tetrahydropyrido[4,3-b]indoles of U.S. Pat. No. 4,001,263 are summarized below. For each pair the results obtained on the prior art compound (a) are given first and the results for the compound of the invention (b) are given second. Where indicated the test compound was also administered orally (p.o.) and tests were carried out for 48 hours.
C. Test results expressed as micrograms/kilograms, obtained on the diastereomers αβ and γδ separated in Example 13 and each of the enantiomers α, β, γ and δ resolved by the procedure of Example 14 are shown below. In each case the compounds are of the formula
The tests were carried out for 72 hours.

[2] = target: dopamine receptors (Rattus norvegicus, UniProt P61169); test: Inhibition of 3H-spiroperidol binding to dopamine receptors; parameters: species or system rat (Sprague-Dawley CD males); details: rat corpus striatum; 0.5 nM 3H-spiroperidol; 10 min at 37° C.; hydrochloride salts
Sequence of dopamine receptors (P61169 whole entry): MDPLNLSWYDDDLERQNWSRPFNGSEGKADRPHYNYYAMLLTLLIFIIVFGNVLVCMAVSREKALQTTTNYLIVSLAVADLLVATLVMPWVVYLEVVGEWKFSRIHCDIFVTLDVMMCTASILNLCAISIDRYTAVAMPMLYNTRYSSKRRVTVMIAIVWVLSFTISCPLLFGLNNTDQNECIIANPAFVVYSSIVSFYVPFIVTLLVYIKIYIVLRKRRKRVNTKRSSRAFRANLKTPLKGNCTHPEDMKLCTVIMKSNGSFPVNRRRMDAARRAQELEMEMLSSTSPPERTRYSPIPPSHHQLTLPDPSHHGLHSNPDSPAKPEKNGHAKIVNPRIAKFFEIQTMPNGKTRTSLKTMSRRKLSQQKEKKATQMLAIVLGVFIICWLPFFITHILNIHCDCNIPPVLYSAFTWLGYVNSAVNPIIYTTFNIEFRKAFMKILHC

[3] = sc, 1 h, Part A, 1 hr, test compound s.c. (method), read-out: ED50 (mg./kg.) 1 Hr.
[4] = sc, 5 h, Part A, 5 hr, test compound s.c. (method), read-out: ED50 (mg./kg.) 5 Hr.
[5] = sc, 24 h, Part A, 24 hrs, test compound s.c. (method), read-out: ED50 (mg./kg.) 24 Hrs.
[6] = sc, 1 h, read-out: ED50 (mg./kg.) 1 Hr.
[7] = sc, 5 h, read-out: ED50 (mg./kg.) 5 Hr.
[8] = ip, 1 h, Part B, 1 hr, i.p., read-out: ED50 (mg./kg.) 1 Hr.
[9] = ip, 5 h, Part B, 5 hrs, i.p., read-out: ED50 (mg./kg.) 5 Hrs.
[10] = ip, 24 h, Part B, 24 hrs, i.p., read-out: ED50 (mg./kg.) 24 Hrs.

## OC(CCCN1CC[C@@H]2[C@@H](C1)c1ccccc1N2c1ccccc1)c1ccc(F)cc1 (relative stereo)
[1]; [3]
  ED50: 0.1 to 0.32 mg/kg
[1]; [4]
  ED50: 0.1 to 0.32 mg/kg
[1]; [5]
  ED50: 0.1 to 0.32 mg/kg

## COc1ccc(C(O)CCCN2CCC3C(C2)c2ccccc2N3c2ccccc2)cc1 (stereo not shown)
[1]; [3]
  ED50: 0.1 to 0.32 mg/kg
[1]; [4]
  ED50: 0.1 to 0.32 mg/kg
[1]; [5]
  ED50: ~1 mg/kg

## OC(CCCN1CCC2C(C1)c1cc(F)ccc1N2c1ccc(F)cc1)c1ccc(F)cc1 (single isomer, unassigned) [α, 8-fluoro-5-(p-fluorophenyl)-2-[4-hydroxy-4-(p-fluorophenyl)butyl]-2,3,4,4a,5,9b-hexahydro-1H-pyrido[4,3-b]indole]
[1]; Part C, 1 hr, s.c. (method)
  ED50 (micrograms/kilograms) 1 Hr.: 120 micrograms/kilograms
[1]; Part C, 5 hrs, s.c. (method)
  ED50 (micrograms/kilograms) 5 Hrs.: 32-100 micrograms/kilograms
[1]; Part C, 24 hrs, s.c. (method)
  ED50 (micrograms/kilograms) 24 Hrs.: 32-100 micrograms/kilograms
[1]; 1 hr
  ED50 (mg./kg.) 1 Hr.: 0.023 mg/kg
[1]; 5 hrs
  ED50 (mg./kg.) 5 Hrs.: 0.014 mg/kg
[1]; 24 hrs
  ED50 (mg./kg.) 24 Hrs.: 0.033 mg/kg
[1]
  ED50 (mg./kg.) 72 Hrs.: > 10 mg/kg

## c1ccc(CN2CC[C@@H]3[C@@H](C2)c2ccccc2N3c2ccccc2)cc1 (relative stereo) [X1=H, Y1=H, R=C6 H5 CH2, dl-trans-2-benzyl-2,3,4,4a,5,9b-hexahydro-5-phenyl-1H-pyrido-[4,3-b]indole Hydrochloride, reference compound]
[1]; [3]
  ED50: ~10 mg/kg
[1]; [4]
  ED50: 3.2 to 32 mg/kg
[1]; [5]
  ED50: > 3.2 mg/kg

## OC(CCCN1CCC2C(C1)c1cc(F)ccc1N2c1ccc(F)cc1)c1ccc(F)cc1 (single isomer, unassigned) [β, 8-fluoro-5-(p-fluorophenyl)-2-[4-hydroxy-4-(p-fluorophenyl)butyl]-2,3,4,4a,5,9b-hexahydro-1H-pyrido[4,3-b]indole hydrochloride]
[2]
  IC50: 1800 nM

## CCN1CCC2C(C1)c1ccccc1N2c1ccccc1 (stereo not shown) [X1=H, Y1=H, R=C2 H5, reference compound]
[1]; [6]
  ED50: ~1 mg/kg
[1]; [7]
  ED50: > 3.2 mg/kg

## OC(CCCN1CC[C@@H]2[C@@H](C1)c1cc(F)ccc1N2c1ccc(F)cc1)c1ccc(F)cc1 (relative stereo) [αβγδ, dl-trans-8-Fluoro-5-(p-fluorophenyl)-2-[4-hydroxy-4-(p-fluorophenyl)butyl]-2,3,4,4a,5,9b-hexahydro-1H-pyrido[4,3-b]indole hydrochloride]
[2]
  IC50: 21 nM
[1]; sc, 1 h, Part C, 1 hr, s.c. (method), read-out: ED50 (micrograms/kilograms) 1 Hr.
  ED50: 0.032 to 0.1 mg/kg
[1]; sc, 5 h, Part C, 5 hrs, s.c. (method), read-out: ED50 (micrograms/kilograms) 5 Hrs.
  ED50: 0.032 to 0.1 mg/kg
[1]; sc, 24 h, Part C, 24 hrs, s.c. (method), read-out: ED50 (micrograms/kilograms) 24 Hrs.
  ED50: 0.032 to 0.1 mg/kg

## OC(CCCN1CC[C@@H]2[C@@H](C1)c1cc(F)ccc1N2c1ccc(F)cc1)c1ccccc1 (relative stereo)
[1]; [3]
  ED50: 0.1 to 0.32 mg/kg
[1]; [4]
  ED50: 0.1 to 0.32 mg/kg
[1]; [5]
  ED50: < 0.32 mg/kg

## OC(CCCN1CCC2C(C1)c1cc(F)ccc1N2c1ccc(F)cc1)c1ccc(F)cc1 (single isomer, unassigned) [γ, 8-fluoro-5-(p-fluorophenyl)-2-[4-hydroxy-4-(p-fluorophenyl)butyl]-2,3,4,4a,5,9b-hexahydro-1H-pyrido[4,3-b]indole]
[1]; Part C, 1 hr, s.c. (method)
  ED50 (micrograms/kilograms) 1 Hr.: 180 micrograms/kilograms
[1]; Part C, 5 hrs, s.c. (method)
  ED50 (micrograms/kilograms) 5 Hrs.: 32-100 micrograms/kilograms
[1]; Part C, 24 hrs, s.c. (method)
  ED50 (micrograms/kilograms) 24 Hrs.: 32-100 micrograms/kilograms
[1]; 1 hr
  ED50 (mg./kg.) 1 Hr.: 0.178 mg/kg
[1]; 5 hrs
  ED50 (mg./kg.) 5 Hrs.: 0.045 mg/kg
[1]; 24 hrs
  ED50 (mg./kg.) 24 Hrs.: 0.018 mg/kg
[1]; 48 hrs
  ED50 (mg./kg.) 48 Hrs.: ca. 1 mg./kg.
[1]
  ED50 (mg./kg.) 72 Hrs.: > 1 mg/kg

## c1ccc(CCCN2CC[C@@H]3[C@@H](C2)c2ccccc2N3c2ccccc2)cc1 (relative stereo) [X1=H, Y1=H, R=C6 H5 (CH2)3, reference compound]
[1]; [3]
  ED50: 3.2 to 10 mg/kg
[1]; [4]
  ED50: 3.2 to 10 mg/kg
[1]; [5]
  ED50: > 10 mg/kg

## O=C(CCCN1CC[C@@H]2[C@@H](C1)c1ccccc1N2c1ccccc1)c1ccc(F)cc1 (relative stereo)
[1]; [4]
  ED50: 0.1 to 0.32 mg/kg

## O=C(CCCN1CC[C@@H]2[C@@H](C1)c1cc(F)ccc1N2c1ccc(F)cc1)c1ccc(F)cc1 (relative stereo)
[1]; [8]
  ED50: < 1 mg/kg
[1]; [9]
  ED50: < 1 mg/kg
[1]; [10]
  ED50: < 1 mg/kg
[1]; [3]
  ED50: < 1 mg/kg
[1]; [4]
  ED50: < 1 mg/kg
[1]; [5]
  ED50: < 1 mg/kg

## OC(CCCN1CC[C@@H]2[C@@H](C1)c1cc(F)ccc1N2c1ccc(F)cc1)c1ccc(F)cc1 (relative stereo) [drawing 38]
[1]; [8]
  ED50: 0.032 to 0.1 mg/kg
[1]; [9]
  ED50: 0.032 to 0.1 mg/kg
[1]; [10]
  ED50: 0.032 to 0.1 mg/kg
[1]; ip, 48 h, Part B, 48 hrs, i.p., read-out: ED50 (mg./kg.) 48 Hrs.
  ED50: 0.1 to 0.32 mg/kg
[1]; po, 1 h, Part B, 1 hr, p.o., read-out: ED50 (mg./kg.) 1 Hr.
  ED50: 0.32 to 1 mg/kg
[1]; po, 5 h, Part B, 5 hrs, p.o., read-out: ED50 (mg./kg.) 5 Hrs.
  ED50: 0.1 to 0.32 mg/kg
[1]; po, 24 h, Part B, 24 hrs, p.o., read-out: ED50 (mg./kg.) 24 Hrs.
  ED50: 0.1 to 0.32 mg/kg
[1]; [3]
  ED50: 0.032 to 0.1 mg/kg

## c1ccc(N2c3ccccc3[C@@H]3CNCC[C@H]32)cc1 (relative stereo) [X1=H, Y1=H, R=H, dl-trans-5-Phenyl-2,3,4,4a,5,9b-hexahydro-1H-pyrido[4,3-b]indole, reference compound]
[1]; [6]
  ED50: 3.2 to 32 mg/kg
[1]; [7]
  ED50: > 3.2 mg/kg
[1]; sc, 24 h, read-out: ED50 (mg./kg.) 24 Hrs.
  ED50: > 32 mg/kg

## OC(CCCN1CC[C@@H]2[C@@H](C1)c1cc(F)ccc1N2c1ccc(F)cc1)c1ccc(F)cc1 (relative stereo) [αβ, dl trans-8-fluoro-5-(p-fluorophenyl)-2-[4-hydroxy-4-(p-fluorophenyl)butyl]-2,3,4,4a,5,9b-hexahydro-1H-pyrido[4,3-b]indole]
[2]
  IC50: 23 nM

## OC(CCCN1CC[C@@H]2[C@@H](C1)c1ccccc1N2c1ccccc1)c1ccccc1 (relative stereo)
[1]; [8]
  ED50: 0.032 to 0.1 mg/kg
[1]; [9]
  ED50: 0.032 to 0.1 mg/kg
[1]; [10]
  ED50: 0.1 to 0.32 mg/kg
[1]; [3]
  ED50: 0.032 to 0.1 mg/kg
[1]; [4]
  ED50: 0.032 to 0.1 mg/kg
[1]; [5]
  ED50: 0.1 to 0.32 mg/kg

## OC(CCCN1CCC2C(C1)c1cc(F)ccc1N2c1ccc(F)cc1)c1ccc(F)cc1 (single isomer, unassigned) [δ, 8-fluoro-5-(p-fluorophenyl)-2-[4-hydroxy-4-(p-fluorophenyl)butyl]-2,3,4,4a,5,9b-hexahydro-1H-pyrido[4,3-b]indole]
[1]; Part C, 1 hr, s.c. (method)
  ED50 (micrograms/kilograms) 1 Hr.: > 1000 micrograms/kilograms
[1]; Part C, 5 hrs, s.c. (method)
  ED50 (micrograms/kilograms) 5 Hrs.: 560 micrograms/kilograms
[1]; Part C, 24 hrs, s.c. (method)
  ED50 (micrograms/kilograms) 24 Hrs.: 320-1000 micrograms/kilograms
[1]; 1 hr
  ED50 (mg./kg.) 1 Hr.: > 10 mg/kg
[1]; 5 hrs
  ED50 (mg./kg.) 5 Hrs.: 5.7 mg/kg
[1]; 24 hrs
  ED50 (mg./kg.) 24 Hrs.: > 10 mg/kg
[1]; 48 hrs
  ED50 (mg./kg.) 48 Hrs.: > 10 mg/kg
[1]
  ED50 (mg./kg.) 72 Hrs.: > 10 mg/kg
